How the values were obtained:
[1] = target: T1, VEGFR-1 (Homo sapiens, UniProt P17948); assay: Biochemical kinase assay (in vitro assay), VEGFR-1; conditions: read-out: IC50 in biochemical assays, VEGFR-1
T1 construct: The VEGFR-1 tyrosine kinase domain was obtained from Upstake; purchased Upstake (so in the source)
T1 sequence (P17948 827-1158 limits assumed): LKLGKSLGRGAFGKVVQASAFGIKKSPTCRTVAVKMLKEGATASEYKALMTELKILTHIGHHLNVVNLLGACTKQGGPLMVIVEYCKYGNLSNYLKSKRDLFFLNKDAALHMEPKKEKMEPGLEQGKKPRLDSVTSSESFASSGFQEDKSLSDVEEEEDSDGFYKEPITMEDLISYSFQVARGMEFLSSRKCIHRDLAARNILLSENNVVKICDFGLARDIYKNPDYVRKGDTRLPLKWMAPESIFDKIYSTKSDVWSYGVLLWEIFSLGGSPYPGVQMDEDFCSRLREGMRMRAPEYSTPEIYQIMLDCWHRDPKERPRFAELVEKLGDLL
Protocol: (§1) Sigma protein kinase assay kits were used. 125 μL per well of Poly-Glu-Tyr (PGT) solution (250 μg/mL of PGT in PBS without Ca^2+, Mg^2+ and sodium bicarbonate) was added in a 96-well plate and overnight incubation was performed at 37 °C. The day after, coating solution was removed and wells were washed with 300 μL of PBS-Tween-20 0.05 %. The washing buffer was removed and wells were dried for 2 h at 37 °C. 90 μL of the kinase buffer was supplemented with ATP (30 μM for VEGFR-1 and VEGFR-3, and 15 μM for VEGFR-2), and the compound (EVT801 or SAR401849 at the indicated concentration or 1 % DMSO for the vehicle control). The phosphorylation reaction was initiated by the addition of 20 μL of kinase buffer without ATP supplemented with 100 ng of the tyrosine kinase (or without tyrosine kinase as control). Plates were incubated with gentle agitation at room temperature for 30 min. After 3 washes with 300 μL of washing buffer, 100 μL of phosphotyrosine specific monoclonal antibody conjugated to HRP (1:30,000) was added onto the phosphorylated PGT. Plates were incubated for 30 min at room temperature under gentle agitation. Then, 3 washes with 300 μL of washing buffer were performed. […] After 7 min at room temperature, the reaction was stopped by addition of 100 μL of […], and absorbance was determined with an Endvision spectrophotometer at 492 nm.

[2] = tested on: ERK phosphorylation; assay: Immunoblot of phosphorylated ERK in NCI-H1703 cells; assay type: cell-based, human; conditions: 1 μmol/L
Protocol: For immunoblotting, 2 x 10^5 cells were scraped and lysed with RIPA lysis buffer (Sigma, R0278), supplemented with protease inhibitor cocktail (Ozyme, 5872S). After separation by SDS-PAGE, proteins were transferred to PVDF membranes. Membranes were blocked with 5 % milk in TBS-T for saturation step and incubated with phosphorylated ERK (CellSignaling, 4377, 1:1000) or GAPDH (CellSignaling, 5174, 1:1000) antibodies overnight, followed by an anti-mouse IgG, secondary antibody HRP linked (CellSignaling, 7076, 1:2000) in antibodies buffer (TBS-Tween 0.05 %, 0.1 % BSA) for 2 h. Membranes were washed 3 x 10 min in TBS before adding chemiluminescent substrate (Supersignal West Pico Plus, 54580, ThermoFisher) and imaged by the Pxi6 station (Ozyme).

[3] = Blood pressure in telemetered rat model of hypertension; assay type: in vivo; conditions: dose as high as 500 mg/kg, single oral administration
Protocol: Supplementary Figure 8. EVT801 and sorafenib show opposing effects on blood pressure in rats. (A) Monitoring of the blood pressure over 24 h after single oral administration of 100 mg/kg EVT801 or 500 mg/kg of EVT801, compared to animals treated with vehicle. (B) Monitoring of the blood pressure over 24 h after single oral administration of 10 mg/kg sorafenib, 30 mg/kg sorafenib or 100 mg/kg of sorafenib, compared to animals treated with vehicle.

[4] = target: T2, VEGFR-2 (Homo sapiens, UniProt P35968); assay: Biochemical kinase assay (in vitro assay), VEGFR-2; design: expressed in transfected cells; host or cells: HEK293T; conditions: read-out: IC50 in biochemical assays, VEGFR-2
Protocol: as §1
Target sequence in this assay (P35968 20-1356): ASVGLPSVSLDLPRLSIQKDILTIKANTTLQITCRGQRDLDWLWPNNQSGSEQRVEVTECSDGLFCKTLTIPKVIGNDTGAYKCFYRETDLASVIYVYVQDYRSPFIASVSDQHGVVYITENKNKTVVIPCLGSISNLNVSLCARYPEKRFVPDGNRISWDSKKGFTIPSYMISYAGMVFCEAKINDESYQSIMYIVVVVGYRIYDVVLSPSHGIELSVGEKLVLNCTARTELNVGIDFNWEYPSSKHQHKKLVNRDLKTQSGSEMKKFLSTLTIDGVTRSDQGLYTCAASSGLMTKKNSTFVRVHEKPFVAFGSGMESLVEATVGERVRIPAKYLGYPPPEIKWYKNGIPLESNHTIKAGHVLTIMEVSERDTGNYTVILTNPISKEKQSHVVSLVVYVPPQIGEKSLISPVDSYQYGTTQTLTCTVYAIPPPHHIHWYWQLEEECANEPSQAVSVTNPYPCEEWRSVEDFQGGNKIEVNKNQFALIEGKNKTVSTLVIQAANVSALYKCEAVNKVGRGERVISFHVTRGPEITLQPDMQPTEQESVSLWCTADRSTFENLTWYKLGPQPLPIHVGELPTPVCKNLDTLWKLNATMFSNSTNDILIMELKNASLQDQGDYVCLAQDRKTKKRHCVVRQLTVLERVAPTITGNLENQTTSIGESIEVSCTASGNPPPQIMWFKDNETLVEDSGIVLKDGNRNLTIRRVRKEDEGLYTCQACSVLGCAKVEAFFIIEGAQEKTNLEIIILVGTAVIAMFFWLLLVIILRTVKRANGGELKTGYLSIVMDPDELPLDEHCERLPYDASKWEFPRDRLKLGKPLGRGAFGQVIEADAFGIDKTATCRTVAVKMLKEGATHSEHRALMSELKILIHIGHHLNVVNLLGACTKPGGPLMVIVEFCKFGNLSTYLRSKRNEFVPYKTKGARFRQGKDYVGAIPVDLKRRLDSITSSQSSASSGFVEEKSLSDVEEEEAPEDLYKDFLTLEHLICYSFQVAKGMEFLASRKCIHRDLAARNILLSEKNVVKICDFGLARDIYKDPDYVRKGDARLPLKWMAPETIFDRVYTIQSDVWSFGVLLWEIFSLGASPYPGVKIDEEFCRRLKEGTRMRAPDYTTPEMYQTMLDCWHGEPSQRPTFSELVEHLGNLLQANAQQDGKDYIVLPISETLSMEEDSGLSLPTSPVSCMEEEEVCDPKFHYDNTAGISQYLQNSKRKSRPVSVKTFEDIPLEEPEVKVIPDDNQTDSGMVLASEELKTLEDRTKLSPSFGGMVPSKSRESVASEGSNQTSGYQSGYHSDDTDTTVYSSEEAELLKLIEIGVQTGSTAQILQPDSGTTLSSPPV

[5] = target: VEGFR-3 (Homo sapiens, UniProt P35916); assay: Cellular autophosphorylation assay, HEK293 cells transiently expressing VEGFR-3; assay type: cell-based; design: expressed in transfected cells; host or cells: HEK293T; conditions: read-out: IC50 in cellular assays, VEGFR-3 autophosphorylation
VEGFR-3, sequence (P35916 25-1363): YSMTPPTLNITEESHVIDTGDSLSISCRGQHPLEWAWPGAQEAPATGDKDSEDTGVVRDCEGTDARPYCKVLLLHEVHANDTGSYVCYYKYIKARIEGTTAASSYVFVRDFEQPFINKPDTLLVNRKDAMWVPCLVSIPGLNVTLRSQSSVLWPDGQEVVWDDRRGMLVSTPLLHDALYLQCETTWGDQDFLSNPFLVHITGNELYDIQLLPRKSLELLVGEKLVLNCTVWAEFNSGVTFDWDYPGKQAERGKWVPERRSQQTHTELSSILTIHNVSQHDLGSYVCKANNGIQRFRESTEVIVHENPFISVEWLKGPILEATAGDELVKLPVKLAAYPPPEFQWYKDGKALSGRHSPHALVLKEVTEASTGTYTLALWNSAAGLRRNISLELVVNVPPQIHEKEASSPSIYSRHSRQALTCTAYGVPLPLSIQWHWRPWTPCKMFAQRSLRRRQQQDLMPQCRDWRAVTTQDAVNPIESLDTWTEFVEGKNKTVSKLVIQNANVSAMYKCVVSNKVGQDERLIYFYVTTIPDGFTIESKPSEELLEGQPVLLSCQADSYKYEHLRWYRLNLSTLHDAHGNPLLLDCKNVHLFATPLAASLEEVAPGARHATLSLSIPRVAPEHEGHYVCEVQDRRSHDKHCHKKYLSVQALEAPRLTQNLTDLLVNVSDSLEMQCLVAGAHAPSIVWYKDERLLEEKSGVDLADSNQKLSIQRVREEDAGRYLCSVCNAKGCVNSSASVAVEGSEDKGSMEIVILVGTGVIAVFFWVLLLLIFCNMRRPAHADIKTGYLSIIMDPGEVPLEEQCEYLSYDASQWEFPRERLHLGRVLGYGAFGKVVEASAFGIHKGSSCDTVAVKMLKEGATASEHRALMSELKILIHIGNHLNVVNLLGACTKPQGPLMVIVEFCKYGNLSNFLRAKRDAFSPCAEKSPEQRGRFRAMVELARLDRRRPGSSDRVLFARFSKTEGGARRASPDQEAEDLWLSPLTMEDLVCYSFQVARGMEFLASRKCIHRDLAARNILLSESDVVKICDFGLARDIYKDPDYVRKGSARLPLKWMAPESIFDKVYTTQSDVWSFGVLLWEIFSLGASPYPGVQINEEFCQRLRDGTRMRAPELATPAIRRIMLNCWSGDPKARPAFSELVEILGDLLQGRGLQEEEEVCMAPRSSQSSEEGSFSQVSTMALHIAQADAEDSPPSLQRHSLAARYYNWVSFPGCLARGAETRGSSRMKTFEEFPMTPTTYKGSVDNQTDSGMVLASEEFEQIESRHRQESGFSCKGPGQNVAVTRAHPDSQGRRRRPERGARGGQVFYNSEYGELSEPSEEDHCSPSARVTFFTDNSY
Protocol: Transfection of HEK293T cells and Ba/F3 cells with VEGFR-1-Flag, VEGFR-2-Flag or VEGFR-3-Flag expression constructs was performed using Fugene-6 (Roche) as per manufacturer’s protocol. Briefly, Fugene-6 was pre-incubated with Opti-Mem (Gibco) before adding DNA. After 24 h, media was replaced with serum-free culture media containing 0.2 % BSA. On the next day, cells were incubated for 1 h in 1 mM orthovanadate, harvested, dissociated and distributed at 4 x 10^5 cells in 5 mL for HEK-VEGFR-1 and HEK-VEGFR-3, and 5 x 10^4 cells per 5 mL for HEK VEGFR-2 in the presence of EVT801 or SAR401849. After 30 min, the reaction was stopped by the addition of cold PBS supplemented with 1 mM orthovanadate. Cells were then lysed with 150 μl of RIPA buffer for 15 min at 4°C, then centrifuged for 10 min at 10,000 g. Supernatants (75 μl) were distributed in duplicate on 96 well plates that were precoated with the anti-flag, and left for 1 h at room temperature. After 3 washes, the anti-phosphotyrosine conjugated to the HRP was added and incubated for 1 h at room temperature. Wells were then washed 3 times with TBS buffer containing 0.5 % Tween-20 and 2 mM MgCl2. The reaction was stopped with 50 μL of 2 N H2SO4, and the signal was read with Envision at the wavelengths of 485 nm and 530 nm.

[6] = target: T2, VEGFR-2; assay: Viability of Ba/F3 cells dependent on VEGFR-2; assay type: cell-based; design: fusion proteins consisting of constructs for IL-3 independent survival and either VEGFR-2 or VEGFR-3 kinase domains; expressed in transfected cells; host or cells: Ba/F3 (stably transduced)
Protocol: Ba/F3 cells were transduced and selected to stably express fusion proteins consisting of constructs for IL-3 independent survival and either VEGFR-2 or VEGFR-3 kinase domains or without the kinase domain. Proliferation and survival of cell lines was dependent on expression of the transcript. Cells in logarithmic-phase growth were harvested and 5 x 10^3 cells were distributed into each well of a 384-well plate in 50 µL of medium. Then, 50 nL of EVT801, SAR401849 or their vehicle solvent were added to appropriate wells. After 48 h, viability was determined by addition of 10 µL CellTiterGlo reagent (Promega). Luminescence was determined as relative light units (RLU) in counts per second.
Target sequence in this assay (P35968 834-1162 limits assumed, species assumed): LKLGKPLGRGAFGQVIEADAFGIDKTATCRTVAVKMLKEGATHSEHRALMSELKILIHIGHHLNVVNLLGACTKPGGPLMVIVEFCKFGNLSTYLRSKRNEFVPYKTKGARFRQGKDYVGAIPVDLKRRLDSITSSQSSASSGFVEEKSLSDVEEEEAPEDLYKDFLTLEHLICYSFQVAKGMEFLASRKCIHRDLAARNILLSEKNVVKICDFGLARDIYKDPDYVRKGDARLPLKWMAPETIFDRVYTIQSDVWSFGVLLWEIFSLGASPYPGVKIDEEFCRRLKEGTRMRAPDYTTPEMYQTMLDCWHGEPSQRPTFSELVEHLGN

In the case of `CCn1c(N)c(-c2ncc[nH]2)c(=O)c2ccc(C#C[C@@](C)(O)COC)nc21` [EVT801], the IC50 [1] is reported as 396 nM, the “reduction of ERK phosphorylation induced by VEGF-C and VEGF-D” value [2] is reported as “better than pazopanib” and the “effect on blood pressure” value [3] is reported as “did not increase blood pressure”. The IC50 [4] was 130 nM, the IC50 [5] was 39 nM and the IC50 [6] was 248 nM.
